Patent US12291533B2, “Substituted fused pyrimidine compounds and uses thereof” (Northwestern University, priority 2017, dated 2025)

Target: T1, glucocerebrosidase (Homo sapiens, UniProt P04062)
T1 sequence (P04062 40-536): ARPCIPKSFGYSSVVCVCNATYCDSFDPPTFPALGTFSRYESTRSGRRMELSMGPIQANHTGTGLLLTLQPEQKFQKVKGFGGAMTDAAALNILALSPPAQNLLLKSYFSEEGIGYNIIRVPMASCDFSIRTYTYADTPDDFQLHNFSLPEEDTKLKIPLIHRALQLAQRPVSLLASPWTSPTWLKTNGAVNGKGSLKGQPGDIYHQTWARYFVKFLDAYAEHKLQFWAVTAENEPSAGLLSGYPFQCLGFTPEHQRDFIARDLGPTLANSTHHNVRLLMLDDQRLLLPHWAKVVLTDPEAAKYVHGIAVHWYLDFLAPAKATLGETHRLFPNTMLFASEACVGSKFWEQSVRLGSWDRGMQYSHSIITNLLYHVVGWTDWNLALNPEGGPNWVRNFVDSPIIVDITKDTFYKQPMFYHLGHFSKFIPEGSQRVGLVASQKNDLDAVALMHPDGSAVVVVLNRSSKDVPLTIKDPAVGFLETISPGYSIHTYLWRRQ
Assay: Glucocerebrosidase activity assay with blue substrate (4MU-Glc)
Assay type: biochemical
Description: Example 2—Glucocerebrosidase Activity Assay with Blue Substrate
The compounds in DMSO solution 0.5 μL/well were transferred to a black 96-well plate (the final titration was 24 nM to 50 μM, 12 concentrations, 2× dilution). 33.5 μL enzyme solution (7.5 nM final concentration) was transferred to the wells. After 5 min of incubation at room temperature, the enzyme reaction was initiated by the addition of 33 μL/well blue substrate. Final concentration of the blue substrate (4MU-Glc) was 1.5 mM. The blue substrate reaction was terminated by the addition of 33 μL/well stop solution (1 M NaOH and 1 M glycine mixture, pH 10) after 30 min of incubation at 37° C. The fluorescence was then measured in the Biotek Synergy H1 multi-mode plate reader with Ex=365 nm and Em=440 nm.
Additional compounds were synthesized and tested for glucocerebrosidase modulatory activity as described in Example 1 and Example 2.

[1] = Table 1, 7.5 nM enzyme, 1.5 mM 4MU-Glc, 30 min at 37° C.
[2] = Table 1, 7.5 nM enzyme, 1.5 mM 4MU-Glc, 30 min at 37° C., titration 24 nM to 50 μM
[3] = Table 2, additional compounds, tested as described in Example 2

SMILES | Emax [1] [%] | AC50 [2] [µM] | AC50 [3] [µM] | Emax [3] [%]
Cc1nn(Cc2ccccc2)c(C)c1Nc1nc(-c2cccnc2)nc2ccccc12 [Compound 70] | 191 | 8.91 | – | –
CN(CCOc1ccccc1)c1cc(N2CCOCC2)nc(-c2cccnc2)n1 [Compound 71] | 346 | 15.8 | – | –
CN(CCOc1ccccc1)c1nc(-c2cccnc2)nc2c1ccn2C [Compound 72] | 927 | 6.31 | – | –
CN(CCOc1ccccc1)c1nc(-c2cccnc2)nc2c1COC2 [Compound 73] | 330 | 5.62 | – | –
Cc1nn(Cc2ccccc2)c(C)c1N(C)c1nc(-c2cccnc2)nc2ccccc12 [Compound 74] | 194 | 10 | – | –
CN(CC1CCc2ccccc2C1)c1nc(-c2cccnc2)nc2ccccc12 (centres unmarked) [Compound 75] | 115 | 2 | – | –
COC(=O)c1ccc(OCCN(C)c2nc(-c3cccnc3)nc3ccccc23)cc1 [Compound 76] | 255 | 4.47 | – | –
COC(=O)c1cccc(OCCN(C)c2nc(-c3cccnc3)nc3ccccc23)c1 [Compound 77] | 432 | 5.01 | – | –
CN(CCOc1ccccc1)c1nc(-c2cccnc2)nc2c1cnn2C [Compound 78] | 425 | 1.56 | – | –
CN(CCOc1ccc(C(=O)O)cc1)c1nc(-c2cccnc2)nc2ccccc12 [Compound 79] | 252 | 12.6 | – | –
CN(CCOc1cccc(C(=O)O)c1)c1nc(-c2cccnc2)nc2ccccc12 [Compound 80] | 442 | 15.8 | – | –
CN(CCOc1ccccc1)c1nc(-c2ccnc3ccccc23)nc2ccccc12 [Compound 81] | 280 | 3.16 | – | –
CN(CC1Cc2ccccc2O1)c1nc(-c2cccnc2)nc2ccccc12 (centres unmarked) [Compound 82] | 501 | 1.12 | – | –
CN(CCOc1ccc(C(=O)ON2C(=O)CCC2=O)cc1)c1nc(-c2cccnc2)nc2ccccc12 [Compound 83] | 230 | 3.98 | – | –
CN(CCOc1cccc(C(=O)ON2C(=O)CCC2=O)c1)c1nc(-c2cccnc2)nc2ccccc12 [Compound 84] | 457 | 4.47 | – | –
CN(CCOc1ccccc1)c1cc(-c2cccnc2)nc(-c2cccnc2)n1 [Compound 85] | 460 | 2.24 | – | –
CN(CCOc1cccc(CCO)c1)c1nc(-c2cccnc2)nc2ccccc12 [Compound 86] | – | 15.8 | – | –
Cn1ncc2c(NCC3CCc4ccccc4O3)nc(-c3cccnc3)nc21 (centres unmarked) [Compound 87] | 173 | 10 | – | –
CN(c1nc(-c2cccnc2)nc2c1cnn2C)C1CCCN(c2ccccc2)C1 (centres unmarked) [Compound 88] | 142 | 5.01 | – | –
CN(Cc1cc2ccccc2o1)c1nc(-c2cccnc2)nc2c1cnn2C [Compound 89] | 660 | 4.47 | – | –

SMILES | Emax [1] [%] | AC50 [2] [µM] | AC50 [3] [µM] | Emax [3] [%]
COC(=O)Cc1cccc(OCCN(C)c2nc(-c3cccnc3)nc3c2cnn3C)c1 [Compound 90] | 908 | 7.94 | – | –
Cn1ncc2c(NCCOC3CCCCC3)nc(-c3cccnc3)nc21 [Compound 91] | 322 | 44.7 | – | –
CN(CCOc1ccccc1)c1nc(-c2cccnc2)nc2c1ncn2C [Compound 92] | 790 | 35.5 | – | –
CN(CCOc1ccccc1)c1nc(-c2cccnc2)nc2scnc12 [Compound 93] | 270 | 4.47 | – | –
COC(=O)Cc1cccc(OCCN(C)c2nc(-c3cccnc3)nc3ncccc23)c1 [Compound 94] | – | 14.1 | – | –
COC(=O)Cc1cccc(OCCN(C)c2nc(-c3cccnc3)nc3ccccc23)c1 [Compound 95] | 721 | 4.47 | – | –
CN(CCOc1cccc(CC(=O)ON2C(=O)CCC2=O)c1)c1nc(-c2cccnc2)nc2c1cnn2C [Compound 96] | 583 | 7.94 | – | –
CN(CCOc1ccccc1)c1nc(-c2cccnc2)nn2cccc12 [Compound 97] | 531 | 3.16 | – | –
CC(C)n1ncc2c(N(C)CCOc3ccccc3)nc(-c3cccnc3)nc21 [Compound 98] | 140 | 28.2 | – | –
CCn1ncc2c(N(C)CCOc3ccccc3)nc(-c3cccnc3)nc21 [Compound 99] | 208 | 0.71 | – | –
Cn1ncc2c(N3CC[C@@H](Oc4ccccc4)C3)nc(-c3cccnc3)nc21 [Compound 100] | 833 | 5.62 | – | –
CN(CCN1CCc2ccccc2C1)c1nc(-c2cccnc2)nc2c1cnn2C [Compound 101] | 197 | 79.4 | – | –
CN(CCOC1CCCCC1)c1nc(-c2cccnc2)nc2c1cnn2C [Compound 102] | – | 25.1 | – | –
CN(CCOc1ccc2c(c1)CCCC2)c1nc(-c2cccnc2)nc2c1cnn2C [Compound 103] | 371 | 3.16 | – | –
CN(Cc1ccc2ccccc2n1)c1nc(-c2cccnc2)nc2c1cnn2C [Compound 104] | 425 | 6.31 | – | –
CN(CC1CCc2ccccc2O1)c1nc(-c2cccnc2)nc2c1cnn2C (centres unmarked) [Compound 105] | 662 | 6.31 | – | –
CCn1ncc2c(N(C)C[C@H]3COc4ccccc4O3)nc(-c3cccnc3)nc21 [Compound 106] | 250 | 1.12 | – | –
CCn1ncc2c(N(C)Cc3ccc4c(c3)OCO4)nc(-c3cccnc3)nc21 [Compound 108] | 400 | 7.08 | – | –
CN(Cc1ccc2ncccc2c1)c1nc(-c2cccnc2)nc2c1cnn2C [Compound 109] | 475 | 14.1 | – | –
CCn1ncc2c(N(C)CCOc3ccc(CN)cc3)nc(-c3cccnc3)nc21 [Compound 110] | 750 | 7.94 | – | –

SMILES | Emax [1] [%] | AC50 [2] [µM] | AC50 [3] [µM] | Emax [3] [%]
CCn1ncc2c(N(C)CCOc3ccc(CNC(=O)CCCCCNC(=O)OC(C)(C)C)cc3)nc(-c3cccnc3)nc21 [Compound 111] | 675 | 0.5 | – | –
CCn1ncc2c(N(C)CCOc3ccc(CNC(=O)CCCCCN)cc3)nc(-c3cccnc3)nc21 [Compound 112] | 530 | 3.55 | – | –
Cn1ncc2c(N3CCC[C@H](C(=O)Nc4ccccc4)C3)nc(-c3cccnc3)nc21 [Compound 116] | – | – | 12.6 | 210
Cn1ncc2c(N3CCC[C@@H](C(=O)Nc4ccccc4)C3)nc(-c3cccnc3)nc21 [Compound 117] | – | – | 14.1 | 310
CCc1ccc(-c2nc(N(C)CCOc3ccc(C#N)cc3)c3cnn(CC)c3n2)cc1 [Compound 123] | – | – | 3.16 | 105
CCc1ccc(-c2nc(N(C)CCOc3ccc(CN)cc3)c3cnn(CC)c3n2)cc1 [Compound 124] | – | – | 6.31 | 480
CCn1ncc2c(N(C)CCOc3ccc(CNC(C)=O)cc3)nc(-c3cccnc3)nc21 [Compound 125] | – | – | 6.31 | 610
CCCCCC(=O)NCc1ccc(OCCN(C)c2nc(-c3cccnc3)nc3c2cnn3CC)cc1 [Compound 126] | – | – | 0.2 | 150
CN(CCC(=O)Nc1ccccc1)c1nc(-c2cccnc2)nc2ccccc12 [Compound 127] | – | – | 35.5 | 325
CN(CCC(=O)Nc1ccccc1)c1nc(-c2cccnc2)nc2c1cnn2C [Compound 128] | – | – | 44.7 | 275
CN(C)c1ccc2c(-c3ccc(C(=O)NCCOCCOCCOCCOCCC(=O)NCCCCCC(=O)Nc4ccc(-c5nc(N(C)CCOc6ccccc6)c6ccccc6n5)cc4)cc3C(=O)[O-])c3ccc(=[N+](C)C)cc-3oc2c1 [Compound 135] | – | – | 1.67 | –
CCn1ncc2c(N(C)CCOc3ccc(C#N)cc3)nc(-c3ccsc3)nc21 [Compound 136] | – | – | 2 | 138
CCn1ncc2c(N(C)CCOc3ccc(CN)cc3)nc(-c3ccsc3)nc21 [Compound 137] | – | – | 2 | 200
CN(CCOc1ccc2nccnc2c1)c1nc(-c2cccnc2)nc2ccccc12 [Compound 138] | – | – | 10 | 875
CCn1ncc2c(N(C)CCOc3ccc(CNC(=O)CNC(=O)OC(C)(C)C)cc3)nc(-c3cccnc3)nc21 [Compound 139] | – | – | 6.31 | 980
CCn1ncc2c(N(C)CCOc3ccc(CNC(=O)CCNC(=O)OC(C)(C)C)cc3)nc(-c3cccnc3)nc21 [Compound 140] | – | – | 2.82 | 980
CCn1ncc2c(N(C)CCOc3ccc(CNC(=O)CCCCNC(=O)OC(C)(C)C)cc3)nc(-c3cccnc3)nc21 [Compound 141] | – | – | 0.5 | 800
CCc1cncc(-c2nc(N(C)CCOc3ccccc3)c3ccccc3n2)c1 [Compound 144] | – | – | 3.16 | 700
CN(CCOc1ccccc1)c1nc(-c2cnc3ccccc3c2)nc2ccccc12 [Compound 145] | – | – | 1.6 | 185
CCn1ncc2c(N(C)CCOc3ccc(CNC(=O)CCCNC(=O)OC(C)(C)C)cc3)nc(-c3cccnc3)nc21 [Compound 146] | – | – | 1.41 | 940
